US20170246166A1, “1,2-BENZOTHIAZOLE COMPOUNDS FOR THE TREATMENT OF KIDNEY DISORDERS” (priority 2014, published 2017)

Experiments:
[1] = test system: db/db mice; assay: Efficacy animal model of diabetic nephropathy (albuminuria, uninephrectomized db/db mice); format: in vivo, mouse; settings: oral gavage twice a day
Source text: The purpose of this assay is to analyze compound efficacy in a mouse model of diabetic nephropathy. The earliest clinical manifestation of diabetic nephropathy is albuminuria, leakage of albumin in the urine. Because diabetic nephropathy can be present without any symptoms, early diagnosis is critical so that treatment can be started. The key test for early diagnosis of diabetic nephropathy involves checking for the presence of albuminuria. Thus, if a compound reduces albumin levels in the urine in a diabetic patient, it would likely indicate efficacy of the compound in the treatment of diabetic nephropathy. To model diabetic nephropathy, a combination of genetically driven type 2 diabetes and uninephrectomy is utilized. Six week-old db/db mice (genetic strain: C57 BL KsJ, ChemPartner, Shanghai) receive standard rodent chow and water ad libitum. The left kidney is removed under anesthesia with 0.6% sodium pentobarbital at 60 mg/kg body weight (10 μL/g i.p.). Seven days after surgery, urine is collected for 24 h in a metabolic cage to measure albuminuria levels and blood is collected by tail snip to determine glucose levels. For compound treatment, the animals are randomized based on 24-h albuminuria, blood glucose, and body weight. A test compound is dissolved in 4% DMSO (aqueous) and administered twice a day by oral gavage. […] During the treatment period, albuminuria is analyzed monthly. […]

[2] = molecular target: human PKCα (Homo sapiens, UniProt P17252); assay: PKC isoforms based HTRF KinEASE-STK assay, PKCα; format: biochemical; settings: 50 μM ATP in substrate mix, 30 min
Source text: The purpose of this assay is to evaluate the inhibitory activity of compounds on various PKC isoforms. It has been reported that perturbations in vascular cell homeostasis caused by different PKC isoforms (PKC-α, β1/2, and PKC-δ) are linked to the development of pathologies affecting large vessel (atherosclerosis, cardiomyopathy) and small vessel (retinopathy, nephropathy, and neuropathy) complications. Geraldes, P. and King, G. L., “Activation of Protein Kinase C Isoforms and Its Impact on Diabetic Complications”, Cir.
Effects of a test compound on the kinase activity of PKCα, β2, δ, ε, ι, and ζ, are determined using a HTRF KINEASE™-STK assay kit (Cisbio) in accordance with the protocol provided by the vendor. It is a general method for measuring Serine/Threonine kinase activities using kinase substrates and a universal detection system. In the current protocol, biotinilated STK1provided in the assay kit is used as the substrate that can be phosphorylated by any PKC isoform. The HTRF KINEASE™-STK assay kit format involves the two steps (Enzymatic step and Detection step) described below. First, the kinase phosphorylates the substrate in the presence of ATP. Second, the detection reagents provided in the assay kit recognize the phosphorylated substrate.

IC50 [2]: ~16.6 nM
Structure (SMILES): C[C@@H]1CN(C(=O)c2cc(-c3c(F)cc(O)cc3F)cc3cnsc23)C[C@H](C)N1.Cl [Example 2, 4-(7-{[(3R,5 S)-3,5-DIMETHYLPIPERAZIN-1-YL]CARBONYL}-1,2-BENZOTHIAZOL-5-YL)-3,5-DIFLUOROPHENOL HYDROCHLORIDE]
ED50 ([1]; Mus musculus, uninephrectomized db/db mice, read-out: ED50, reduction of albuminuria): ~25.3 mg/kg
actual mean levels of albumin in the urine (collected during 24 hours) ([1]; db/db mice, dose of 30 mg/kg): 85.0 ± 6.9 µg
